In patent US20140378426A1, “Methods and compositions for enhancing visual function” (priority 2013, published 2014):

Columns and labels:
[1] = biological target: T1, bovine rhodopsin activation of bovine rod transducin (Bos taurus, UniProt P02699); assay: radioactive filter binding assay: rhodopsin activation of bovine rod transducin (35S-GTPγS binding); assay type: biochemical
T1 construct: Rhodopsin can be purified from membrane fractions isolated from bovine rod outer segments; from tissue; host or cells: bovine retina / bovine rod outer segments
T1 sequence (P02699 whole entry): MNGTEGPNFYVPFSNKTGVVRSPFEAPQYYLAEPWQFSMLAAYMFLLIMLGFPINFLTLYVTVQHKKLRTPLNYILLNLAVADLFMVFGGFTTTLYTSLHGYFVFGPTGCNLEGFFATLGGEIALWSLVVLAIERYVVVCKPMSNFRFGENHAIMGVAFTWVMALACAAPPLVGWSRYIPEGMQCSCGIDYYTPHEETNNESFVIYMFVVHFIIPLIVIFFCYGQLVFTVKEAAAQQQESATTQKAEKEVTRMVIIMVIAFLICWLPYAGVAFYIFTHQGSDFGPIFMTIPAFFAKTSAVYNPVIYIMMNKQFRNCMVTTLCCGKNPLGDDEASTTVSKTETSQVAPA
Description: Vision enhancing activity of the estradiol analogs or derivatives can be examined in accordance with methods described herein or well known in the art. For example, the compounds can be assessed for ability to promote rhodopsin activation of rod transducin using a well-described radioactive filter binding assay. Detailed procedures for carrying out the assay are described in the art, e.g., Kono et al., Biochem. 44:799, 2005; Kono et al., FEBS Lett. 580:229-232, 2006; and Robinson et al., Methods Enzymol. 315:207-218, 2000). […] Effect of estradiol or an analog compound on rhodopsin activation of rod transducing can then be measured by monitoring binding of [35S]GTPγS to transducin in the presence or absence of the compound. The reaction mixture can contain, e.g., an appropriate buffer (e.g., an HEPES buffer or 10 mM Tris/1 mM MES buffer (pH 7.5)), 1 mM dithiothreitol, 5 mM MgCl2, 115 mM NaCl, 2.5 μM transducin, 0.01% DM, and 5 nM pigment (as determined from the extinction coefficient).
We examined the effect of the 17β-estradiol on opsin signaling and transducin activation. We measured the ability of estradiol to modulate rhodopsin activation of bovine rod transducin using the radioactive filter binding assay as described in Kono et al., Biochemistry 44:799-804, 2005; and Kono & Crouch, Methods Mol. Biol. 652:85-94, 2010. […]

[2] = cited from earlier work

C[C@]12CC[C@@H]3c4ccc(O)cc4CC[C@H]3[C@@H]1CC[C@@H]2O [17β-estradiol]
35S-GTPγS bound to transducin in the presence vs. absence of 17β-estradiol ([1]; bovine rhodopsin illuminated with 15 sec pulse of yellow light, Rho+estradiol vs Rho alone, FIG. 1): about three-fold
rhodopsin activation of rod transducin (result in words) ([1]; presence of 17β-estradiol): significantly up-regulated
potency in estrogenic effect relative to estriol ([2]; estradiol vs estriol): about 80 times
potency in estrogenic effect relative to estrone ([2]; estradiol vs estrone): about 10 times
